{"source": "patent US8841087B2", "about": "(priority 2008, dated 2014)", "tested_on": "clinical strains of Mycobacterium tuberculosis", "test": "Reference phenotypic test of antibiotic sensitivity in solid medium", "type": "cell-based", "conditions": "Mycobacterium tuberculosis, read-out: minimum inhibitory concentration"}
{"smiles": "CO[C@H]1/C=C/O[C@@]2(C)Oc3c(C)c(O)c4c(O)c(c(/C=N/N5CCN(C)CC5)c(O)c4c3C2=O)NC(=O)/C(C)=C\\C=C\\[C@H](C)[C@H](O)[C@@H](C)[C@@H](O)[C@@H](C)[C@H](OC(C)=O)[C@@H]1C", "note": "[rifampicin]", "values": [{"measurement": "MIC", "result": "> 1", "unit": "µg/mL"}]}
